How the values were obtained:
[1] = system: Aβ1-42 induced inhibition of long-term potentiation in the CA1 region of hippocampal slices; assay: Aβ-induced LTP impairment in CA1 region of hippocampal slices (fEPSP recordings, theta-burst stimulation); type: cell-based, rat; mice; settings: for reversal of Aβ-induced LTP impairment: individual terpene trilactones at 1 μM each, co-treated with 200 nM Aβ1-42 oligomers, 20 min; for efficiency of rescue of LTP impairment compared with GJ: 1 μM, 20 min treatment, slices treated with Aβ
glycine receptor = settings: among several receptor-gated channels; cited from earlier work
[2] = system: SY5Y human neuroblastoma cell line; settings: Bate et al. (25); cited from earlier work
[3] = system: cultured hippocampal neurons treated with oligomeric Aβ1-42; assay: Neuronal cell death assay (nuclear counting of viable cells); settings: for cells surviving: mean±SEM
GABAA receptor = settings: compared with all the ginkgolides; cited from earlier work
[4] = system: GABAA receptor convulsant binding site; settings: cited from earlier work
[5] = system: inhibition of LTP by Aβ1-42 oligomers; settings: earlier studies (19); cited from earlier work
[6] = 1 μM compound added at the same time as 10 μM oligomeric Aβ1-42, 24 hour, Aβ alone 48.5%±2.4

## CC(C)(C)[C@]1(O)CC2OC(=O)CC23C(=O)OC2OC(=O)[C@H](O)C231 (stereo partly drawn) [BB, bilobalide]
[1]
  reversal of Aβ-induced LTP impairment: No effect

## C[C@@H]1C(=O)O[C@H]2C[C@@]34[C@H]5C[C@@H](C(C)(C)C)[C@]36[C@@H](OC(=O)[C@@H]6O)O[C@@]4(C(=O)O5)[C@]21O [GA, ginkgolide A]
[1]
  efficiency of rescue of LTP impairment compared with GJ: slightly less than that of GJ
  reversal of Aβ-induced LTP impairment: capable of reproducing the activity of the enriched extract and reversing Aβ-induced LTP impairment
Glycine receptor
  antagonistic properties toward glycine receptor: showed antagonistic properties exclusively toward glycine receptor
[2]
  blockade of cell death: blockade of cell death
[3]; [6]
  cells surviving: 50.5%±+5.7

## C[C@@H]1COC2CC34C5C[C@@H](C(C)(C)C)C36C(OC[C@@H]6O)O[C@@]4(CO5)[C@]21O (stereo partly drawn) [GA-triether]
[1]
  efficiency of rescue of LTP impairment compared with GJ: slightly less than that of GJ
  reversal of Aβ-induced LTP impairment: capable of reproducing the activity of the enriched extract and reversing Aβ-induced LTP impairment

## CC1C(=O)OC2C(O)C34C5CC(C(C)(C)C)C36C(OC(=O)C6O)OC4(C(=O)O5)C12O (stereo not drawn) [GB, ginkgolide B]
[1]
  reversal of Aβ-induced LTP impairment: No effect
Glycine receptor
  antagonistic properties toward glycine receptor: showed antagonistic properties exclusively toward glycine receptor
[2]
  blockade of cell death: blockade of cell death

## C[C@@H]1C(=O)O[C@@H]2[C@H]1[C@@]13OC4OC(=O)[C@H](O)C45[C@H](C(C)(C)C)[C@@H](O)C(OC1=O)[C@]53[C@H]2O (stereo partly drawn) [GM, Ginkgolide M]
GABAA receptor
  inhibition of the GABAA receptor: highest inhibition
[4]
  displacement of TBPS (35S-tert-butylbicyclophosphorothionate): efficiently displaced

## COc1ccc(C2CNC(=O)C2)cc1OC1CCCC1 (stereo not drawn) [rolipram]
[5]
  reversal of inhibition of LTP by Aβ1-42 oligomers: can be reversed by treatment with the phosphodiesterase 4 (PDE4) inhibitor rolipram

## ginkgolide C [GC]
[1]
  reversal of Aβ-induced LTP impairment: No effect
Glycine receptor
  antagonistic properties toward glycine receptor: showed antagonistic properties exclusively toward glycine receptor

## ginkgolide J [GJ]
[1]; 155 min
  potentiation at the end of the recording (residual potentiation, FIG. 12): most potent ginkgolide, completely mimicking the activity of the enriched extract
[1]
  reversal of Aβ-induced LTP impairment: capable of reproducing the activity of the enriched extract and reversing Aβ-induced LTP impairment
Glycine receptor
  antagonistic properties toward glycine receptor: showed antagonistic properties exclusively toward glycine receptor
[3]; [6]
  cells surviving: 70.7%±1.4
[3]; 5 μM, data not shown
  prevention of Aβ-toxicity: completely prevented the Aβ-toxicity

## oligomeric Aβ1-42: Aβ1-42 purchased from American Peptide, prepared in oligomeric form; neurotoxic agent [reference compound]
[1]; 200 nM Aβ1-42 oligomers alone, within 20 min of exposure
  LTP in the CA1 area relative to control: depressed LTP in the CA1 area to about a half of control values
[1]; substance alone
  effect on baseline transmission: Neither Aβ nor P8A alone affected baseline transmission
[3]; 10 μM oligomeric Aβ1-42 alone, 24 hour exposure
  cells surviving: 48.5%±2.4
